Key:
KRas wild type = assay: Ras GTP Binding Domain Inhibition Assay (Ras Superfamily Assay); settings: 20 μM compound; for KRas wild type + SOS: % inh.: with SOS; for KRas wild type: % inh.: without SOS
Outline: (§1)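 Binding of 100 nM fluorescent GTP (Cy3 or Cy5, 45 min, room temperature) was read after washes from plate-captured His-tagged protein. Beforehand, compounds at 20 μM or in dilution series for IC50 sat 3 h on the protein in Tris buffer pH 7.4 or 7.0 with 1% DMSO, Sos GEF optionally added for the last hour.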

KRas G12C mutant = assay: as above; settings: 20 μM compound; for KRas G12C mutant + SOS: % inh.: with SOS; for KRas G12C mutant: % inh.: without SOS
Outline: as §1

KRas G12D mutant = assay: as above; settings: 20 μM compound; for KRas G12D mutant + SOS: % inh.: with SOS; for KRas G12D mutant: % inh.: without SOS
Outline: as §1

Rho-A = target: T1, Rho-A (Homo sapiens, UniProt P61586); assay: as above; settings: read-out: Rho-A: % inh..
T1 construct: made in house
Outline: as §1

KRas Q61H mutant = assay: as above; settings: 20 μM compound; for KRas Q61H mutant + SOS: % inh.: with SOS; for KRas Q61H mutant: % inh.: without SOS
Outline: as §1

Rac-1 = target: T2, Rac-1 (Homo sapiens, UniProt P63000); assay: as above; settings: read-out: Rac-1: % inh.
T2 construct: made in house
Outline: as §1

Akt phosphorylation = assay: Akt Phosphorylation Assay (western blot), Panc-1; format: cell-based, human; settings: at 10 μM, * = activation
Outline: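 Panc-1 (KRas G12D) cells were treated with compound at 10 μM final (0.3% DMSO) for 6 h at 37 °C, or with serial dilutions for IC50. Cells were either serum-starved overnight in 0.5% FBS and then stimulated with 1.5 ng/ml EGF for 15 min, or kept in 10% FBS without stimulation. Akt Ser473 phosphorylation in lysates was read by western blot.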

T1 sequence (P61586 whole entry): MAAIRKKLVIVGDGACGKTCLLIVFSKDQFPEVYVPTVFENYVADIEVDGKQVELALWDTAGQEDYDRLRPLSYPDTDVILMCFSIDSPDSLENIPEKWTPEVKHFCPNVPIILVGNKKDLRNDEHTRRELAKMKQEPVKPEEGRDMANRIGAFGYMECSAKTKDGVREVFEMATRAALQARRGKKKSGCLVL

SMILES | KRas wild type + SOS: % inh. (KRas wild type) | KRas wild type: % inh. (KRas wild type) | KRas G12C mutant + SOS: % inh. (KRas G12C mutant) | KRas G12C mutant: % inh. (KRas G12C mutant) | KRas G12D mutant + SOS: % inh. (KRas G12D mutant) | KRas G12D mutant: % inh. (KRas G12D mutant) | inhibition at 20 µM (Rho-A) [%] | KRas Q61H mutant + SOS: % inh. (KRas Q61H mutant) | KRas Q61H mutant: % inh. (KRas Q61H mutant) | inhibition at 20 µM (Rac-1) [%] | % inh of Akt phosphorylation in Panc-1 (Akt phosphorylation)
COc1cc(-c2cn3nc(-c4nccn4C)nc(Nc4cc(OC)ncn4)c3c2C)ccn1 [Compound 50, 6-(2-Methoxypyridin-4-yl)-N-(6-methoxypyrimidin-4-yl)-5-methyl-2-(1-methyl-1H-imidazol-2-yl)pyrrolo[2,1-f][1,2,4]triazin-4-amine] | B (B = 26-49% inhibition) | C (C = 50-75% inhibition) | A (A = 1-25% inhibition) | A (A = 1-25% inhibition) | C (C = 50-75% inhibition) | C (C = 50-75% inhibition) | 50 to 75 | D (D = 76-100% inhibition) | D (D = 76-100% inhibition) | 26 to 49 | D* (85-100% activation)
COc1cccc(-c2cn3nc(-c4nccn4C)nc(N[C@H]4C[C@H](OC)C4)c3c2-c2ccccc2)c1F [Compound 42, 6-(2-Fluoro-3-methoxyphenyl)-N-((1r,3r)-3-methoxycyclobutyl)-2-(1-methyl-1H-imidazol-2-yl)-5-phenylpyrrolo[2,1-f][1,2,4]triazin-4-amine] | 0 (0 = 0% inhibition) | 0 (0 = 0% inhibition) | 0 (0 = 0% inhibition) | 0 (0 = 0% inhibition) | 0 (0 = 0% inhibition) | 0 (0 = 0% inhibition) | 1 to 25 | B (B = 26-49% inhibition) | B (B = 26-49% inhibition) | 0 | D (85-100% inhibition)
Cc1c(-c2ccn(C(C)C)n2)cn2nc(-c3nccn3C)nc(Nc3ccccn3)c12 [Compound 57, 6-(1-Isopropyl-1H-pyrazol-3-yl)-5-methyl-2-(1-methyl-1H-imidazol-2-yl)-N-(pyridin-2-yl)pyrrolo[2,1-f][1,2,4]triazin-4-amine] | D (D = 76-100% inhibition) | D (D = 76-100% inhibition) | D (D = 76-100% inhibition) | D (D = 76-100% inhibition) | D (D = 76-100% inhibition) | D (D = 76-100% inhibition) | 76 to 100 | D (D = 76-100% inhibition) | D (D = 76-100% inhibition) | 76 to 100 | D* (85-100% activation)
COc1cccc(Nc2nc(-c3nccn3C)nn3cc(-c4ccn(C(C)C)n4)c(-c4ccccc4)c23)n1 [Compound 23, 6-(1-Isopropyl-1H-pyrazol-3-yl)-N-(6-methoxypyridin-2-yl)-2-(1-methyl-1H-imidazol-2-yl)-5-phenylpyrrolo[2,1-f][1,2,4]triazin-4-amine] | A (A = 1-25% inhibition) | 0 (0 = 0% inhibition) | 0 (0 = 0% inhibition) | A (A = 1-25% inhibition) | 0 (0 = 0% inhibition) | A (A = 1-25% inhibition) | 1 to 25 | 0 (0 = 0% inhibition) | A (A = 1-25% inhibition) | 1 to 25 | D (85-100% inhibition)
COC1CCCN(c2nc(-c3ccccn3)nn3cc(-c4ccn(C(C)C)n4)c(-c4ccccc4)c23)C1 (racemic) [Compound 27, rac 6-(1-Isopropyl-1H-pyrazol-3-yl)-4-(3-methoxypiperidin-1-yl)-5-phenyl-2-(pyridin-2-yl)pyrrolo[2,1-f][1,2,4]triazine] | A (A = 1-25% inhibition) | A (A = 1-25% inhibition) | 0 (0 = 0% inhibition) | 0 (0 = 0% inhibition) | 0 (0 = 0% inhibition) | 0 (0 = 0% inhibition) | 1 to 25 | 0 (0 = 0% inhibition) | A (A = 1-25% inhibition) | 1 to 25 | A* (1-25% activation)
Cc1c(-c2ccn(C(C)C)n2)cn2nc(-c3nccn3C)nc(Nc3nnc(C4CC4)o3)c12 [Compound 67, 5-Cyclopropyl-N-(6-(1-isopropyl-1H-pyrazol-3-yl)-5-methyl-2-(1-methyl-1H-imidazol-2-yl)pyrrolo[2,1-f][1,2,4]triazin-4-yl)-1,3,4-oxadiazol-2-amine] | C (C = 50-75% inhibition) | C (C = 50-75% inhibition) | B (B = 26-49% inhibition) | C (C = 50-75% inhibition) | C (C = 50-75% inhibition) | C (C = 50-75% inhibition) | 76 to 100 | C (C = 50-75% inhibition) | C (C = 50-75% inhibition) | 50 to 75 | D* (85-100% activation)
Cc1c(-c2ccn(C(C)C)n2)cn2nc(-c3nccn3C)nc(Nc3cc(C4CC4)n[nH]3)c12 [Compound 68, N-(3-Cyclopropyl-1H-pyrazol-5-yl)-6-(1-isopropyl-1H-pyrazol-3-yl)-5-methyl-2-(1-methyl-1H-imidazol-2-yl)pyrrolo[2,1-f][1,2,4]triazin-4-amine] | D (D = 76-100% inhibition) | D (D = 76-100% inhibition) | D (D = 76-100% inhibition) | D (D = 76-100% inhibition) | D (D = 76-100% inhibition) | D (D = 76-100% inhibition) | 76 to 100 | D (D = 76-100% inhibition) | D (D = 76-100% inhibition) | 76 to 100 | D* (85-100% activation)
COc1cccc(-c2cn3nc(-c4nccn4C)nc(N[C@H]4C[C@H](OC)C4)c3c2-c2ccccc2)c1Cl [Compound 32, 6-(2-Chloro-3-methoxyphenyl)-N-((1r,3r)-3-methoxycyclobutyl)-2-(1-methyl-1H-imidazol-2-yl)-5-phenylpyrrolo[2,1-f][1,2,4]triazin-4-amine] | 0 (0 = 0% inhibition) | A (A = 1-25% inhibition) | 0 (0 = 0% inhibition) | 0 (0 = 0% inhibition) | 0 (0 = 0% inhibition) | 0 (0 = 0% inhibition) | 1 to 25 | A (A = 1-25% inhibition) | A (A = 1-25% inhibition) | 0 | D (85-100% inhibition)
Cn1ccnc1-c1nc(OCCN2CCCC2)c2c(-c3ccccc3)ccn2n1 [Compound 41, 2-(1-Methyl-1H-imidazol-2-yl)-5-phenyl-4-(2-(pyrrolidin-1-yl)ethoxy)pyrrolo[2,1-f][1,2,4]triazine] | 0 (0 = 0% inhibition) | A (A = 1-25% inhibition) | 0 (0 = 0% inhibition) | 0 (0 = 0% inhibition) | A (A = 1-25% inhibition) | 0 (0 = 0% inhibition) | 0 | 0 (0 = 0% inhibition) | 0 (0 = 0% inhibition) | 0 | A* (1-25% activation)

Source: patent US12459951B2, “Compounds that interact with RAS superfamily proteins for treatment of cancers, inflammatory diseases, rasopathies, and fibrotic disease” (SHY Therapeutics, LLC, priority 2022, dated 2025)
